Assay results reported in US20260166039A1 (SCHRÖDINGER, INC., priority 2022, published 2026).
pIC50: −log10 of the molar value.

The compounds below were run against T1, Wee1 kinase domain (Homo sapiens, UniProt P30291) (assay: Wee1 Kinase Biochemical Assay (ADP-Glo)). Conditions: Wee1 kinase domain, 15 uM ATP, ADP-Glo.
T1 construct: Wee1 kinase domain was purchased from Carna (catalog #05-177); purchased Carna 05-177
T1 sequence (P30291 299-569 limits assumed): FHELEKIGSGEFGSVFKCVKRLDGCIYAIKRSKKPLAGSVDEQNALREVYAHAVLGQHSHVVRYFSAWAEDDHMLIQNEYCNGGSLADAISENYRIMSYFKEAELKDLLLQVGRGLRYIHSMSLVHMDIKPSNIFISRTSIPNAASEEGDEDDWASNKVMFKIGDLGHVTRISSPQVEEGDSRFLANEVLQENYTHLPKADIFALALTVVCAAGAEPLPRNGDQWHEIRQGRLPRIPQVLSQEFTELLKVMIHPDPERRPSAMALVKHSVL
Summary of the method: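 The reaction mix held 1 nM Wee1 kinase domain, 15 uM ATP and 2 ng/mL Poly(Lys,Tyr 4:1) substrate and was left for 4 hours at 25 °C. ADP production was then measured with ADP-Glo, and percent inhibition was derived relative to DMSO and a saturating Wee1 inhibitor.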
A pIC50 of 7.00 to 8.00 was found for `C[C@H]1COC(=O)N1c1cccc(N2c3nc(Nc4ccc([C@@H]5CCN(C)C5)cc4)ncc3[C@]3(C)COC(C)(C)C[C@H]23)n1` (single isomer, unassigned) [Example 304] in this work.
A pIC50 of 6.00 to 7.00 was found for `CN1CC[C@H](n2cc(Nc3ncc4c(n3)N(c3cccc(N=S(C)(C)=O)n3)[C@H]3CC(C)(C)OC[C@@]43C)cn2)C1` (single isomer, unassigned) [Example 197] in this work.
A pIC50 of 7.00 to 8.00 was found for `CC1(C)C[C@@H]2N(c3cccc(N=S(C)(C)=O)n3)c3nc(Nc4ccc(C5CNC5)cc4)ncc3[C@]2(C)CO1` (single isomer, unassigned) [Example 164] in this work.
A pIC50 of 6.00 to 7.00 was found for `CNCc1cccc(N2c3nc(Nc4ccc(N5C6CCC5COC6)c(C)c4)ncc3[C@]3(C)COC(C)(C)C[C@H]23)n1` (single isomer, unassigned) [Example 86] in this work.
A pIC50 of 6.00 to 7.00 was found for `CNCc1cccc(N2c3nc(Nc4ccc5c(c4)C(=O)N(C)C5)ncc3[C@]3(C)COC(C)(C)C[C@H]23)n1` (single isomer, unassigned) [Example 31] in this work.
A pIC50 of 7.00 to 8.00 was found for `CN[C@H]1CCN(c2ccc(Nc3ncc4c(n3)N(c3cccc(N5C(=O)OC[C@@H]5C)n3)[C@H]3CC(C)(C)OC[C@@]43C)cc2)C1` (single isomer, unassigned) [Example 316] in this work.
A pIC50 of no more than 6.00 was found for `CN1Cc2cc(Nc3ncc4c(n3)N(c3cccc(N=S(C)(C)=O)n3)[C@H]3CC(C)(C)OC[C@@]43C)cnc2C1` (single isomer, unassigned) [Example 187] in this work.
A pIC50 of 6.00 to 7.00 was found for `C[C@H]1COC(=O)N1c1cccc(N2c3nc(Nc4ccc(OC5CCN(C)CC5)nc4)ncc3[C@]3(C)COC(C)(C)C[C@H]23)n1` (single isomer, unassigned) [Example 334] in this work.
A pIC50 of no more than 6.00 was found for `CNC(=O)c1ccc(Nc2ncc3c(n2)N(c2cccc(N=S(C)(C)=O)n2)C2CC(C)(C)OCC32C)cc1F` (single isomer, unassigned) [Example 118] in this work.
A pIC50 of 7.00 to 8.00 was found for `Cc1cc(Nc2ncc3c(n2)N(c2cccc(N4C(=O)OC[C@@H]4C)n2)[C@H]2CC(C)(C)OC[C@@]32C)ccc1O[C@@H]1CCN(C)C1` (single isomer, unassigned) [Example 346] in this work.
A pIC50 of 6.00 to 7.00 was found for `CNCc1cccc(N2c3nc(Nc4ccc([C@@H]5CCOC5)cc4)ncc3[C@]3(C)COC(C)(C)C[C@H]23)n1` (single isomer, unassigned) [Example 37] in this work.
A pIC50 of 7.00 to 8.00 was found for `CNCc1cccc(N2c3nc(Nc4ccc(N5CCN(C)CC5)cc4)ncc3[C@]3(C)COC(C)(C)C[C@H]23)n1` (single isomer, unassigned) [Example 93] in this work.
A pIC50 of 7.00 to 8.00 was found for `CN1CCC[C@H]1c1ccc(Nc2ncc3c(n2)N(c2cccc(N=S(C)(C)=O)n2)[C@H]2CC(C)(C)OC[C@@]32C)cc1` (single isomer, unassigned) [Example 125] in this work.
A pIC50 of 7.00 to 8.00 was found for `C[C@H]1COC(=O)N1c1cccc(N2c3nc(Nc4ccn(C5CCN(C)CC5)c(=O)c4)ncc3[C@]3(C)COC(C)(C)C[C@H]23)n1` (single isomer, unassigned) [Example 272] in this work.
A pIC50 of 7.00 to 8.00 was found for `CNCc1cccc(N2c3nc(Nc4ccc(N5CCOCC5)c(Cl)c4)ncc3[C@]3(C)COC(C)(C)C[C@H]23)n1` (single isomer, unassigned) [Example 13] in this work.

Same assay, conditions: class symbols; 1 nM Wee1 enzyme, 15 uM ATP, 4 hours at 25° C.
A pIC50 of 7.00 to 8.00 was found for `CN1C[C@H]2C[C@@H]1CN2c1ccc(Nc2ncc3c(n2)N(c2cccc(C4(O)CC4)n2)[C@H]2CC(C)(C)OC[C@@]32C)cc1` [Example 647, 1-(6-((4bS,8aS)-4b,7,7-trimethyl-2-((4-((1R,4R)-5-methyl-2,5-diazabicyclo[2.2.1]heptan-2-yl)phenyl)amino)-4b,7,8,8a-tetrahydropyrano[3′,4′:4,5]pyrrolo[2,3-d]pyrimidin-9(5H)-yl)pyridin-2-yl)cyclopropan-1-ol] in this work.
A pIC50 of 6.00 to 7.00 was found for `CC1(C)C[C@@H]2N(c3cccc(N4CCCC4=O)n3)c3nc(Nc4ccc(O[C@H]5CCNC5)cc4)ncc3[C@]2(C)CO1` [Example 621, 1-(6-((4bS,8aS)-4b,7,7-trimethyl-2-((4-(((S)-pyrrolidin-3-yl)oxy)phenyl)amino)-4b,7,8,8a-tetrahydropyrano[3′,4′:4,5]pyrrolo[2,3-d]pyrimidin-9(5H)-yl)pyridin-2-yl)pyrrolidin-2-one] in this work.
A pIC50 of 6.00 to 7.00 was found for `CNCc1cccc(N2c3nc(Nc4ccc(-c5cnn(C)c5)c(C)c4)ncc3[C@]3(C)COC(C)(C)C[C@H]23)n1` (single isomer, unassigned) [Example 463] in this work.
A pIC50 of 7.00 to 8.00 was found for `CNCc1cccc(N2c3nc(NC(=O)[C@H]4C[C@@H]4c4cnn(C)c4)ncc3[C@@]3(C)COC(C)(C)C[C@@H]23)n1` [Example 763, (1S,2S)-2-(1-methyl-1H-pyrazol-4-yl)-N-((4bR,8aR)-4b,7,7-trimethyl-9-(6-((methylamino)methyl)pyridin-2-yl)-4b,5,7,8,8a,9-hexahydropyrano[3′,4′:4,5]pyrrolo[2,3-d]pyrimidin-2-yl)cyclopropane-1-carboxamide] in this work.
A pIC50 of 6.00 to 7.00 was found for `CN[C@H](C)c1cc(C)nc(N2c3nc(Nc4ccc(N5CCOCC5)cc4)ncc3[C@]3(C)COC(C)(C)C[C@H]23)c1` (single isomer, unassigned) [Example 558] in this work.
A pIC50 of 6.00 to 7.00 was found for `CN[C@H]1CCc2ccc(N3c4nc(Nc5ccc(N6CCOCC6)cc5)ncc4[C@@]4(C)COC(C)(C)C[C@@H]34)nc21` (single isomer, unassigned) [Example 552] in this work.
A pIC50 of 7.00 to 8.00 was found for `CC1(C)C[C@@H]2N(c3cccc(N4CCCC4=O)n3)c3nc(Nc4ccc([C@H]5CCNC5)cc4)ncc3[C@]2(C)CO1` [Example 637, 1-(6-((4bS,8aS)-4b,7,7-trimethyl-2-((4-((R)-pyrrolidin-3-yl)phenyl)amino)-4b,7,8,8a-tetrahydropyrano[3′,4′:4,5]pyrrolo[2,3-d]pyrimidin-9(5H)-yl)pyridin-2-yl)pyrrolidin-2-one] in this work.
A pIC50 greater than 8.00 was found for `Cn1ccc(Nc2ncc3c(n2)N(c2cccc(N=S(C)(C)=O)n2)[C@@H]2CC(C)(C)OC[C@]32C)n1` (single isomer, unassigned) [Example 513] in this work.
A pIC50 of 6.00 to 7.00 was found for `CN1CC[C@H]2CN(c3ccc(Nc4ncc5c(n4)N(c4cccc(N6CCCC6=O)n4)[C@H]4CC(C)(C)OC[C@@]54C)cc3)C[C@H]21` [Example 689, 1-(6-((4bS,8aS)-4b,7,7-trimethyl-2-((4-((3aS,6aS)-1-methylhexahydropyrrolo[3,4-b]pyrrol-5(1H)-yl)phenyl)amino)-4b,7,8,8a-tetrahydropyrano[3′,4′:4,5]pyrrolo[2,3-d]pyrimidin-9(5H)-yl)pyridin-2-yl)pyrrolidin-2-one] in this work.
A pIC50 greater than 8.00 was found for `CN1CCN(c2ccc(Nc3ncc4c(n3)N(c3cccc(N=S(C)(C)=O)n3)[C@@H]3CC(C)(C)OC[C@]43C)cn2)CC1` (single isomer, unassigned) [Example 509] in this work.
A pIC50 greater than 8.00 was found for `CC[C@@]1(O)CCc2ccc(N3c4nc(Nc5ccc(N6C[C@H]7C[C@@H]6CN7C)cc5)ncc4[C@@]4(C)COC(C)(C)C[C@@H]34)nc21` [Example 790, (R)-7-ethyl-2-((4bR,8aR)-4b,7,7-trimethyl-2-((4-((1R,4R)-5-methyl-2,5-diazabicyclo[2.2.1]heptan-2-yl)phenyl)amino)-4b,7,8,8a-tetrahydropyrano[3′,4′:4,5]pyrrolo[2,3-d]pyrimidin-9(5H)-yl)-6,7-dihydro-5H-cyclopenta[b]pyridin-7-ol] in this work.
A pIC50 of 7.00 to 8.00 was found for `CC1(C)C[C@@H]2N(c3cccc(N4CCOC4=O)n3)c3nc(Nc4ccc([C@]5(C)CCNC5)cc4)ncc3[C@]2(C)CO1` [Example 665, 3-(6-((4bS,8aS)-46,7,7-trimethyl-2-((4-((S)-3-methylpyrrolidin-3-yl)phenyl)amino)-4b,7,8,8a-tetrahydropyrano[3′,4′:4,5]pyrrolo[2,3-d]pyrimidin-9(5H)-yl)pyridin-2-yl)oxazolidin-2-one] in this work.
A pIC50 of 6.00 to 7.00 was found for `CN1[C@@H]2C[C@H]1CN(c1ccc(Nc3ncc4c(n3)N(c3cccc(N5CCCC5=O)n3)[C@H]3CC(C)(C)OC[C@@]43C)cc1)C2` [Example 704, 1-(6-((4bS,8aS)-4b,7,7-trimethyl-2-((4-((1R,5S)-6-methyl-3,6-diazabicyclo[3.1.1]heptan-3-yl)phenyl)amino)-4b,7,8,8a-tetrahydropyrano[3′,4′:4,5]pyrrolo[2,3-d]pyrimidin-9(5H)-yl)pyridin-2-yl)pyrrolidin-2-one] in this work.
A pIC50 of 6.00 to 7.00 was found for `CNC1(c2cccc(N3c4nc(Nc5ccc(N6CCOCC6)cc5)ncc4[C@]4(C)COC(C)(C)C[C@H]34)n2)CC1` (single isomer, unassigned) [Example 544] in this work.
A pIC50 of 6.00 to 7.00 was found for `CC1(C)C[C@@H]2N(c3cccc([C@@H]4CNCCO4)n3)c3nc(Nc4ccc(N5CCOCC5)cc4)ncc3[C@]2(C)CO1` [Example 736, (4bS,8aS)-4b,7,7-trimethyl-9-(6-((S)-morpholin-2-yl)pyridin-2-yl)-N-(4-morpholinophenyl)-4b,5,7,8,8a,9-hexahydropyrano[3′,4′:4,5]pyrrolo[2,3-d]pyrimidin-2-amine] in this work.
A pIC50 of 6.00 to 7.00 was found for `CC1(C)C[C@@H]2N(c3cccc([C@H]4CCNC4)n3)c3nc(Nc4ccc(N5CCOCC5)cc4)ncc3[C@]2(C)CO1` (single isomer, unassigned) [Example 541] in this work.
A pIC50 of 6.00 to 7.00 was found for `CN1CC[C@@H]2CN(c3ccc(Nc4ncc5c(n4)N(c4cccc(C(C)(C)O)n4)[C@H]4CC(C)(C)OC[C@@]54C)cc3)C[C@@H]21` (single isomer, unassigned) [Example 438] in this work.
A pIC50 of 7.00 to 8.00 was found for `CN1C[C@H]2C[C@@H]1CN2c1ccc(Nc2ncc3c(n2)N(c2cccc(N4CCCC4=O)n2)[C@H]2CC(C)(C)OC[C@@]32C)cc1F` [Example 639, 1-(6-((4bS,8aS)-2-((3-fluoro-4-((1R,4R)-5-methyl-2,5-diazabicyclo[2.2.1]heptan-2-yl)phenyl)amino)-4b,7,7-trimethyl-4b,7,8,8a-tetrahydropyrano[3′,4′:4,5]pyrrolo[2,3-d]pyrimidin-9(5H)-yl)pyridin-2-yl)pyrrolidin-2-one] in this work.
A pIC50 of 7.00 to 8.00 was found for `CNc1ncc2c(n1)N(c1cccc(N=S(C)(C)=O)n1)[C@@H]1CC(C)(C)OC[C@]21C` (single isomer, unassigned) [Example 723] in this work.
